One data set has as its target rat 5-HT7 receptors. Details: method as in Leopoldo et al. [2008]; Hedlund et al. [2010]. To be noted: cloned in cell lines; ref Leopoldo et al. [2008]; Hedlund et al. [2010]; cited from earlier work.
Data set [1] has as its target T1, human 5-HT7(a) receptor (Homo sapiens, UniProt P34969). Kind of data set: cAMP assay, agonist effects in HEK-hu5-HT7 cells. In kind it is cell-based. Particulars: 100 pmol/L to 10 μmol/L, data not shown. As for the experimental part: (§1) cAMP levels were quantified using the homogeneous time-resolved fluorescence (HTRF)-based cAMP dynamic kit (Cisbio, Bioassays, Codolet, France). […] In all cases, basal cAMP levels were determined in control wells in the absence of agonist. The effects of the compounds on forskolin-stimulated adenylate cyclase activity were evaluated either at a single concentration (parental HEK293 cells) or by using concentration–response curves (HEK-hu5-HT7 cells). Cells were incubated in the absence (control) or presence of the compounds, at the concentrations indicated, in assay buffer for 15 min at 37°C prior to the addition of forskolin and further incubation for 15 min. Basal cAMP levels were determined in control wells in the absence of forskolin. After proceeding with the subsequent assay steps according to the manufacturer's protocol, the fluorescence emission intensity ratio at 665/620 nm wavelength was measured in an Ultra Evolution 384 microplate reader (TECAN, Männedorf, Switzerland).

The subject of another data set is mice. Details: method as in Adriani et al. [2012]. To be noted: ref Adriani et al. [2012]; cited from earlier work.
The target in a further data set is D2. Set-up: method as in Leopoldo et al. [2008]. To be noted: ref Leopoldo et al. [2008]; cited from earlier work.
Data set [2] relates to rat trigeminal nucleus caudalis. Details: method as in Martínez-García et al. [2011]. To be noted: ref Martínez-García et al. [2011]; cited from earlier work.
The subject of data set [3] is isolated guinea pig ileum. Details: method as in Leopoldo et al. [2008]. To be noted: ex vivo; ref Leopoldo et al. [2008]; cited from earlier work.
For data set [4], the system named is forskolin-stimulated adenylate cyclase activity in HEK-hu5-HT7 cells. The data set can be described thus: Forskolin-stimulated cAMP production, preincubation/washout experiments, HEK-hu5-HT7 cells. It is filed as cell-based. Particulars: Homo sapiens; 30 min preincubation, washout, then 10 μmol/L forskolin 15 min, n = 3; read-out: IC50, irrev, forskolin-stimulated adenylate cyclase activity. As for the experimental part:
(§2) After proceeding with the subsequent assay steps according to the manufacturer's protocol, fluorescence was measured as previously described.
(§3) The data were analyzed using GraphPad Prism software v4.0 (GraphPad Software Inc., San Diego, CA). Receptor density (Bmax) and the dissociation constant (Kd) of the radioligand were determined by nonlinear regression curve fitting of saturation binding curves to a one-site binding (hyperbola) model. […] The IC50 values were determined by nonlinear regression curve fitting to sigmoidal dose–response or sigmoidal dose–response (variable slope) models, as indicated. […] Results are expressed as the mean values ± SEM from the number of independent experiments indicated.

Details of data set [5]: method as in Hedlund et al. [2010]. Particulars: mice; ref Hedlund et al. [2010]; cited from earlier work.
Data set [6] has as its target T1, human 5-HT7(a) receptor. The data set can be described thus: Whole-cell [^3H]-SB-269970 radioligand binding (preincubation/washout experiments). To be noted: for inhibition at 10 µM: read-out: Inhibition of specific binding of [^3H]-SB-269970 after preincubation and washout, 10 μmol/L, 30 min at 37°C, time t = 0 after washout. As for the experimental part: After incubation for 30 min at 37°C, the assay was stopped, as previously described.
as §3, with “experiments indicated. Prediction of log of octanol/water partition coefficient (xlog P) values were retrieved from ZINC database (http://zinc.docking.org/) (Irwin et al. [2012]).” for “experiments indicated.”

Data set [7] relates to forskolin-stimulated adenylate cyclase activity in parental HEK293 cells. The data set can be described thus: Forskolin-stimulated cAMP production in parental HEK293 cells. It is filed as cell-based, human. Particulars: 1 μmol/L or 10 μmol/L compound, parental HEK293 cells (Fig. 7 inset). On the procedure: as §1
The target in data set [8] is 5-HT1A. Particulars: ref Leopoldo et al. [2008], cited from earlier work.
For data set [9], the system named is forskolin-stimulated adenylate cyclase activity in HEK-hu5-HT7 cells. The data set can be described thus: Forskolin-stimulated cAMP production in the presence of the compounds, HEK-hu5-HT7 cells. To be noted: Homo sapiens; 10 μmol/L forskolin, continuous presence of the compounds; read-out: IC50, inhibition of forskolin-stimulated adenylate cyclase activity. It is filed as cell-based. As for the experimental part:
as §1
The data were analyzed using GraphPad Prism software v4.0 (GraphPad Software Inc., San Diego, CA). Receptor density (Bmax) and the dissociation constant (Kd) of the radioligand were determined by nonlinear regression curve fitting of saturation binding curves to a one-site binding (hyperbola) model. […] Results are expressed as the mean values ± SEM from the number of independent experiments indicated. […]
(Cyclic AMP is a second messenger, typically raised through Gs and lowered through Gi signalling.)

For data set [10], the system named is wild type and 5-HT7 knock-out mice. Set-up: method as in Hedlund et al. [2010]. Particulars: ref Hedlund et al. [2010]; cited from earlier work.
A further data set concerns mouse hippocampal slices. Details: method as in Costa et al. [2012]. To be noted: ref Costa et al. [2012]; cited from earlier work.
For data set [11], the target named is T1, human 5-HT7(a) receptor. The data set can be described thus: Membrane homogenate [^3H]-SB-269970 radioligand binding. To be noted: for Hill slope nH (membrane homogenate radioligand binding): [^3H]-SB-269970 competition, best fit model (nH = 1 or variable slope). As for the experimental part: Cell membrane homogenate was prepared as previously described (Varin et al. [2010]). […] After incubation, the reactions were stopped by filtration in a harvester apparatus through GF/B filters pretreated with 0.25% (w/v) poly(ethyleneimine) solution. Filters were counted in a LS-6000LL beta counter (Beckman Coulter, Inc., Fullerton, CA, USA).
as §3, with “experiments indicated. Prediction of log of octanol/water partition coefficient (xlog P) values were retrieved from ZINC database (http://zinc.docking.org/) (Irwin et al. [2012]).” for “experiments indicated.”

In data set [12] the target is T1, human 5-HT7(a) receptor. The data set can be described thus: 5-CT-stimulated cAMP assay, preincubation/washout experiments, HEK-hu5-HT7 cells. To be noted: read-out: IC50, irrev, 5-CT-stimulated cAMP production. It is filed as cell-based. On the procedure: as §2, §3
Data set [13] concerns the target T1, human 5-HT7(a) receptor. The data set can be described thus: 5-CT-stimulated cAMP assay in the presence of the compounds (antagonist curves, Schild analysis), HEK-hu5-HT7 cells. In kind it is cell-based. As for the experimental part: as §1, with “forskolin.” for “forskolin. After proceeding with the subsequent assay steps according to the manufacturer's protocol, the fluorescence emission intensity ratio at 665/620 nm wavelength was measured in an Ultra Evolution 384 microplate reader (TECAN, Männedorf, Switzerland).”
as §3

Data set [14] addresses T1, human 5-HT7(a) receptor. The data set can be described thus: Whole-cell [^3H]-SB-269970 radioligand binding (in the presence of the compounds). On the procedure:
as §3, with “experiments indicated. Prediction of log of octanol/water partition coefficient (xlog P) values were retrieved from ZINC database (http://zinc.docking.org/) (Irwin et al. [2012]).” for “experiments indicated.”

The target of data set [15] is T2, human 5-HT7 receptors (Homo sapiens, UniProt P34969). Kind of data set: [^3H]-LSD binding in membrane homogenates of HEK-hu5-HT7 cells.
T2 sequence (P34969 1-445 isoform P34969-2): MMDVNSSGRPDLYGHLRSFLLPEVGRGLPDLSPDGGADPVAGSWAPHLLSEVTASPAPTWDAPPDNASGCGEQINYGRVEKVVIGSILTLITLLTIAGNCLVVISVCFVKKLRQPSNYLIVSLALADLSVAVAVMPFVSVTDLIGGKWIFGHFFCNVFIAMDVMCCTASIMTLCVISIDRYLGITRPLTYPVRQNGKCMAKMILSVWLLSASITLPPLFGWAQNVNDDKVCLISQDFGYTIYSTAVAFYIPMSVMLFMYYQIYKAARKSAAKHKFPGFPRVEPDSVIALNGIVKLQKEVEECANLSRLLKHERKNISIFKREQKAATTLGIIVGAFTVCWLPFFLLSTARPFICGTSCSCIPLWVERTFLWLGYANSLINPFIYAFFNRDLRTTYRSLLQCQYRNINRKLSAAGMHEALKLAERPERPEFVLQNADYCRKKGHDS
The subject of data set [16] is 5-HT1A. The data set can be described thus: Literature affinity for 5-HT1A receptors. In kind it is binding. To be noted: reported 5-HT1A affinity versus 5-HT7 affinity of this study; ref Leopoldo et al. [2008].
Data set [17] has as its target T2, human 5-HT7 receptors. To be noted: estimated from experiments with behavior not compatible with classical competitive binding; ref Leopoldo et al. [2008]; cited from earlier work.
Another data set has as its system 5-HT7 receptors. Details: method as in Lacivita et al. [2012]. Particulars: ref Lacivita et al. [2012]; cited from earlier work.

Consider 3 molecules from PMC4186431 (Pharmacology Research & Perspectives, 2013).

Each structure is given as a SMILES string. Like-named read-outs stand apart in the source and are kept apart here.

T1 sequence (P34969 1-445 isoform P34969-2): as above

For orientation: Ki means the equilibrium dissociation constant of an inhibitor or competing ligand from its target. Broadly, the IC50 is the concentration that gives 50% inhibition. In the case of `N#Cc1ccc(CNC(=O)CCCCCN2CCN(c3ccccc3-c3ccccc3)CC2)cc1` [LP-211, N-(4-cyanophenylmethyl)-4-(2-diphenyl)-1-piperazinehexanamide], the Ki is 0.58 nM at rat 5-HT7 receptors, 142 nM at D2 and 188 to 379 nM at 5-HT1A [8] (Hedlund et al. [2010]). Further, the “Agonist effect on cAMP levels” value on human 5-HT7(a) receptor [1] is on record as “did not elicit any detectable increase in cAMP levels”. For the same molecule, the “Behavioural effect in mice (anxiety)” value in the data set on mice is “antianxiety-like effects”. Further, in [2], the “Effect on capsaicin-induced increase in Fos-like immunoreactivity” value is given as “able to modulate the capsaicin-induced increase”. The “Effect on substance P-induced contraction in isolated guinea pig ileum” value in [3] is recorded as “elicited relaxation of substance P-induced contraction”. The values for the IC50 in [4] and in data set [9] were 13.9 ± 3.93 nM and 60.71 ± 0.48 nM, respectively. Besides, in [5], the “Metabolism in disposition studies” value is “undergoes N-dealkylation to RA-7”. Besides, on human 5-HT7(a) receptor [6], the inhibition at 10 µM was determined as 95.03 ± 0.47%. Besides, the “Effect on forskolin-stimulated cAMP production in the parental cell line” value in data set [7] is “no effect”. Moreover, the “Effect on body temperature in wild type and 5-HT7 knock-out mice” value in data set [10] was “induced hypothermia in wild type but not in 5-HT7 knock-out mice”. Also, the “Effect on long-term synaptic depression induced by metabotropic glutamate receptors” value in the data set on mouse hippocampal slices is reported as “reverted long-term synaptic depression”. Moreover, the “Hill slope nH (membrane homogenate radioligand binding)” value at human 5-HT7(a) receptor [11] is 1.

Regarding `O=C(CCCCCN1CCN(c2ccccc2-c2ccccc2)CC1)NCc1ccccc1` [MEL-9, N-benzyl-4-(2-diphenyl)-1-piperazinehexanamide], the “Agonist effect on cAMP levels” value on human 5-HT7(a) receptor [1] is on record as “did not elicit any detectable increase in cAMP levels”. Also, the Ki on D2 was 161 nM; on human 5-HT7(a) receptor [14] (read-out: 5-HT7 affinity (whole-cell radioligand binding) Ki) it was 13.8 ± 0.24 nM; at human 5-HT7 receptors [15] (n = 3, data not shown, read-out: Ki, displacement of [^3H]-LSD binding), 37.9 ± 11.3 nM; at 5-HT1A [8], 503 nM; at human 5-HT7 receptors [17] it was 0.8 nM; on human 5-HT7(a) receptor [11] (2 nmol/L [^3H]-SB-269970, HEK-hu5-HT7 membrane homogenate, 60 min 37°C, read-out: 5-HT7 affinity (membrane homogenate radioligand binding) Ki), 16.6 ± 0.99 nM. The concentration for half-maximal inhibition (IC50) came to 41.8 ± 18 nM at human 5-HT7(a) receptor [12]; 27.8 ± 6.72 nM at human 5-HT7(a) receptor [13]; 11.2 ± 3.25 nM in data set [4]; 22.4 ± 7.63 nM at human 5-HT7(a) receptor [6] (30 min preincubation, washout, then 2 nmol/L radioligand); 19.3 ± 8.18 nM in data set [9]. Besides, at human 5-HT7(a) receptor [6], the inhibition at 10 µM turned out to be 97.2 ± 0.23%. In addition, in data set [7], the “Effect on forskolin-stimulated cAMP production in the parental cell line” value is on record as “no effect”. On human 5-HT7 receptors [15] (data not shown), the “nH, displacement of [^3H]-LSD binding” value is reported as 1.11 ± 0.19. Moreover, in the data set on 5-HT1A [16], the “Fold lower affinity for 5-HT1A receptors than for 5-HT7 receptors” value is on record as 9.7 fold. For the same molecule, the “5-HT7 affinity (membrane homogenate radioligand binding) pKi” value at human 5-HT7(a) receptor [11] (2 nmol/L [^3H]-SB-269970, HEK-hu5-HT7 membrane homogenate) is listed as 7.78. The “Hill slope nH (membrane homogenate radioligand binding)” value on human 5-HT7(a) receptor [11] turned out to be 1.34 ± 0.14.

In the case of `c1ccc(-c2ccccc2N2CCNCC2)cc1` [RA-7, 1-(2-biphenyl)piperazine], the remaining activity at 10 µM at human 5-HT7(a) receptor [14] (read-out: [^3H]-SB-269970 specific binding (percent of control), competitive whole-cell binding, 10 μmol/L, n = 3) came out at 0.64 ± 0.44%. On human 5-HT7(a) receptor [6] (10 μmol/L, 30 min at 37°C, time t = 0 after washout), the “Inhibition of specific binding of [^3H]-SB-269970 after preincubation and washout” value is recorded as about 50%. The “Duration of inhibition of [^3H]-SB-269970 binding after compound removal” value on human 5-HT7(a) receptor [6] (preincubation with 10 μmol/L, recovery followed at 0, 1, 3, 6 and 24 h) is recorded as “at least 24 h”. In addition, at human 5-HT7(a) receptor [6], the inhibition at 10 µM was determined as 54.8 ± 5.15%. In addition, the “Action at 5-HT7 receptors in HeLa cells” value in the data set with 5-HT7 receptors is listed as “high-affinity receptor 5-HT7 antagonist”.
